Measurements from PMC12155096 (International Journal of Molecular Sciences, 2025).
Structures can show the parent of a compound that is named as a salt. Where two headings read alike, the source gives them in different places.

Key:
human CYP2D6 = human CYP2D6 (Homo sapiens, UniProt P10635)
human CYP2C19 = human CYP2C19 (Homo sapiens, UniProt P33261); assay: biochemical
human CYP2C9 [1] = biological target: T1, human CYP2C9 (Homo sapiens, UniProt P11712); assay: biochemical
CYP3A4 = CYP3A4 (Homo sapiens, UniProt P08684)
human CYP1A2 = biological target: T2, human CYP1A2 (Homo sapiens, UniProt P05177); assay: biochemical
T2 sequence (P05177 1-516): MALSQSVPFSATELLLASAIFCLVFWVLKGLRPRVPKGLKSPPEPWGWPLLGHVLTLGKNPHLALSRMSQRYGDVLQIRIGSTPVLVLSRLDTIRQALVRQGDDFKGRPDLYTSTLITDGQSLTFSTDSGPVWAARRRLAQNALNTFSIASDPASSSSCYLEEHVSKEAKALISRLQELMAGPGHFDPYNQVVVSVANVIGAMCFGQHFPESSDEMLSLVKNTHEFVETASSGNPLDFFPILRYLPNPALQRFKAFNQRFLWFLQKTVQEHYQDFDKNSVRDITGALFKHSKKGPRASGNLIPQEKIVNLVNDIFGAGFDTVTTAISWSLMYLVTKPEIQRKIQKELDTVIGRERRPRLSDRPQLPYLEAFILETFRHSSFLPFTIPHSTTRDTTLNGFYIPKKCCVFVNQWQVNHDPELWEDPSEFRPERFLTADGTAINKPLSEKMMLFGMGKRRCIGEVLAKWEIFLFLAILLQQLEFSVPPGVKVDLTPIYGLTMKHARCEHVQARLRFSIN

human CYP2C9 [2] = biological target: T1, human CYP2C9
[3] = biological target: Photinus pyralis (firefly) luciferase (Photinus pyralis, UniProt P08659); assay: biochemical; assay type: biochemical
[4] = CYP2C19 AC50 (half-maximal activity concentration)
[5] = CYP2C9 AC50 (half-maximal activity concentration)
[6] = CYP1A2 AC50 (half-maximal activity concentration)

Sequence of human CYP2D6 (P10635 whole entry): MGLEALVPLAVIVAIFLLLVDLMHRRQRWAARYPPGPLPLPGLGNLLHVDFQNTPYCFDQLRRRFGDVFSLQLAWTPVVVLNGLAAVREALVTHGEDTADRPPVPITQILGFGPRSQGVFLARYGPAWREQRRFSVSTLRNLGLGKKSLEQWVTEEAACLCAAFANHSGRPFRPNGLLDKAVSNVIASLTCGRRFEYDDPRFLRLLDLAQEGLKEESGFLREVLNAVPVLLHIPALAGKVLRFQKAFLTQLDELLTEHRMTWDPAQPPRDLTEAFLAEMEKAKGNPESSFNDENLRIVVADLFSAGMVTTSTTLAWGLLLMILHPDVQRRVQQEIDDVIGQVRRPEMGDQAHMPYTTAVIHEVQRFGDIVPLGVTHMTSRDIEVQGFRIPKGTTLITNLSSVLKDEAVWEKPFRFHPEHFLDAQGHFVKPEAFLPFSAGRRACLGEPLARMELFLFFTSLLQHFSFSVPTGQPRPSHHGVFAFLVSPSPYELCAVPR
Sequence of CYP3A4 (P08684 whole entry): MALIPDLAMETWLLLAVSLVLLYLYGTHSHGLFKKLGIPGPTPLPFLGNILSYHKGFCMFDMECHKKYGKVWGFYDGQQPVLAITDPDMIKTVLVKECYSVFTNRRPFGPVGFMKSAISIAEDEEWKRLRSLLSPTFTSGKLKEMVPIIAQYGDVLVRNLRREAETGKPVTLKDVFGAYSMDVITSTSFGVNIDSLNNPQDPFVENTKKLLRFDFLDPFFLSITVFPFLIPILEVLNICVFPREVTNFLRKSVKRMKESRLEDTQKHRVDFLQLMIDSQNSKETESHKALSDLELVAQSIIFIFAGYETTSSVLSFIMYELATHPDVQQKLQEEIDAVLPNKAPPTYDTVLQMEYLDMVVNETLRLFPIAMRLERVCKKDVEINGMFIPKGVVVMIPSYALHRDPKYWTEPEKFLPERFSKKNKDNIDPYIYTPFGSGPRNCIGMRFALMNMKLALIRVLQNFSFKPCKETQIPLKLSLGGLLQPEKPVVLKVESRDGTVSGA
Sequence of human CYP2C19 (P33261 whole entry): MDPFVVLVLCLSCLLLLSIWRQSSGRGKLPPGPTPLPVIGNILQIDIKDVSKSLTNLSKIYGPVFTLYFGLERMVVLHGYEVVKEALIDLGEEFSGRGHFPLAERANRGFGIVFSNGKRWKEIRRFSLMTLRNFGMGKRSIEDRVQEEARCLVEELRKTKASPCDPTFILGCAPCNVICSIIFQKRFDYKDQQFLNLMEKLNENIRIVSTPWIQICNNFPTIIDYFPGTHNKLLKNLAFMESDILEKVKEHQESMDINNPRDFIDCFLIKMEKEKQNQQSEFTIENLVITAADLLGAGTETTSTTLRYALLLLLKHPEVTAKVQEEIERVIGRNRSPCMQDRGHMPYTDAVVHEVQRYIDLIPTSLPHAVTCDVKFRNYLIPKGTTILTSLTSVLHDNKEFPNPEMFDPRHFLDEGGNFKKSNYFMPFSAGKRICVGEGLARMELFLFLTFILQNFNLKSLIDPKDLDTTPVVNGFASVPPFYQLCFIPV
T1 sequence (P11712 whole entry): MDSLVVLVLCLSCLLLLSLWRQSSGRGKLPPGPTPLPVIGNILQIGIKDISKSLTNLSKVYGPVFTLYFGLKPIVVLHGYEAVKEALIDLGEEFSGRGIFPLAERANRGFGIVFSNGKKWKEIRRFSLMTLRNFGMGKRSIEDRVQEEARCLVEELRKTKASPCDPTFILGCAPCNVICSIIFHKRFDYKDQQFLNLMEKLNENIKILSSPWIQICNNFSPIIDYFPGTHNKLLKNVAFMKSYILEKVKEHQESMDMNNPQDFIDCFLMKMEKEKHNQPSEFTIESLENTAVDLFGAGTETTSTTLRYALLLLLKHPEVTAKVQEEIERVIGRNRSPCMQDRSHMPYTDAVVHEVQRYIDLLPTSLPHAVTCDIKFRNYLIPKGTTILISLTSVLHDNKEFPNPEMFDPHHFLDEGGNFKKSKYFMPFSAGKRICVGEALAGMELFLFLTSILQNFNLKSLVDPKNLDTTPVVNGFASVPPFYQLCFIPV
Sequence of Photinus pyralis (firefly) luciferase (P08659 whole entry): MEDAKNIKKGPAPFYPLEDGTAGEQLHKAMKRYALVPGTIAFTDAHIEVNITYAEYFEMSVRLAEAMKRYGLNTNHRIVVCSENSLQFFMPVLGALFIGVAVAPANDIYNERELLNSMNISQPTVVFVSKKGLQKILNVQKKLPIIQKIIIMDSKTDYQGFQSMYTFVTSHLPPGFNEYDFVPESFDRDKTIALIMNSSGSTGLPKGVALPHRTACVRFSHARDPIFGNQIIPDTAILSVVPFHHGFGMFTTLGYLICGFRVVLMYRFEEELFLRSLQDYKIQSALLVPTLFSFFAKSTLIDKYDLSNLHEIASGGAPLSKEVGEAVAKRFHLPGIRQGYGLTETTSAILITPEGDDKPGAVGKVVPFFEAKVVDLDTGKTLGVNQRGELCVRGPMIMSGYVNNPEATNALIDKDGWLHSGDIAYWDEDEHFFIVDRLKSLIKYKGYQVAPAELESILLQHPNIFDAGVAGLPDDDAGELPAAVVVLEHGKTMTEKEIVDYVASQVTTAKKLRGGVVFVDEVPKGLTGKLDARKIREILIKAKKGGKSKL

Row | Structure (SMILES) | CYP2D6 AC50 (half-maximal activity concentration) (human CYP2D6) | AC50 (human CYP2C19; [4]) [µM] | AC50 (human CYP2C9 [1]; [5]) [µM] | CYP3A4 AC50 (half-maximal activity concentration) (CYP3A4) | AC50 (human CYP1A2; [6]) [µM] | other results
1 | Nc1c(Br)cc([N+](=O)[O-])cc1Br [2,6-Dibromo-4-nitroaniline] | Inactive | 43.1 | 18.1 | Inactive | 1.27 | 
2 | CCC(C)c1ccccc1O (stereo not drawn) [2-(Butan-2-yl)phenol] | Inactive | 9.46 | 53.2 | Inconclusive inhibitor | 38.5 | 
3 | CC(C)c1ccccc1O [2-Isopropylphenol] | Inactive |  |  | Inactive |  | CYP2C9 AC50 (half-maximal activity concentration) (human CYP2C9 [2]): Inactive; AC50 (human CYP2C19): 9.09 µM; AC50 (human CYP1A2): 47.7 µM
4 | O=[N+]([O-])c1ccc(O)cc1C(F)(F)F [3-Trifluoromethyl-4-nitrophenol] | Inconclusive inhibitor | 27.9 | 34.1 | Inconclusive inhibitor | 56.6 | 
5 | CCc1cc(Cc2cc(CC)c(N)c(CC)c2)cc(CC)c1N [4,4'-Methylenebis(2,6-diethylaniline)] |  |  |  |  |  | Luciferase IC50 [3]: Inactive
6 | CCC(C)c1ccc(O)cc1 (stereo not drawn) [4-(Butan-2-yl)phenol] | Inactive | 3.47 | 33.4 | Inactive | 34.6 | 
7 | CCN(CC)c1ccc(C=O)cc1 [4-(Diethylamino)benzaldehyde] | Inconclusive inhibitor |  |  | Inactive |  | AC50 (human CYP2C19): 14.3 µM; AC50 (human CYP2C9 [1]): 20.1 µM; AC50 (human CYP1A2): 5.66 µM
8 | CC(C)(C)c1ccc(OC(=O)c2ccccc2O)cc1 [4-tert-Butylphenyl salicylate] | Inactive |  |  | Inactive |  | AC50 (human CYP2C19): 14.2 µM; AC50 (human CYP2C9 [1]): 24.7 µM; AC50 (human CYP1A2): 40.1 µM
9 | O=[N+]([O-])c1ccc2c3c(cccc13)CC2 [5-Nitroacenaphthene] | Inactive | 33.6 | 8.98 | Inconclusive inhibitor | 2.25 | 
10 | CC(=O)C1(O)CCC2C3CCC4=CC(=O)CCC4(C)C3CCC21C (stereo not drawn) [17alpha-Hydroxyprogesterone] |  |  |  |  |  | Luciferase IC50 (half-maximal inhibitory concentration) [3]: Inactive
11 | C[C@]12CC[C@@H]3c4ccc(O)cc4CC[C@H]3[C@@H]1CC[C@@H]2O [17beta-Estradiol] | Inactive | 16.8 | 5.72 | Inconclusive activator | 29.1 | 
12 | C[C@@H]1CC[C@H]2[C@@H](C)C(=O)O[C@@H]3O[C@@]4(C)CC[C@@H]1[C@]32OO4 [Artemisinin] |  |  |  |  |  | Luciferase IC50 (half-maximal inhibitory concentration) [3]: Inactive
13 | CCNc1nc(NC(C)C)nc(OC)n1 [Atraton] | Inactive | 32.1 | 38.5 | Inconclusive inhibitor | 28.4 | 
14 | CCOC(=O)OC(C)OC(=O)[C@@H]1N2C(=O)[C@@H](NC(=O)[C@H](N)c3ccccc3)[C@H]2SC1(C)C (stereo partly drawn) [Bacampicillin hydrochloride] |  |  |  |  |  | Luciferase IC50 (half-maximal inhibitory concentration) [3]: Inactive
15 | Cc1c(-c2ccc(O)cc2)n(Cc2ccc(OCCN3CCCCCC3)cc2)c2ccc(O)cc12 [Bazedoxifene] |  |  |  |  |  | Luciferase IC50 (half-maximal inhibitory concentration) [3]: Inactive
16 | [Cl-].c1ccc(C[P+](c2ccccc2)(c2ccccc2)c2ccccc2)cc1 [Benzyltriphenylphosphonium chloride] |  |  |  |  |  | Luciferase IC50 (half-maximal inhibitory concentration) [3]: Inactive
17 | Nc1c(Cl)cc([N+](=O)[O-])cc1Cl [Dicloran] | Inactive | 55.8 | 17.9 | Inactive | 2.84 | 
18 | C[C@]12CC[C@@H]3c4ccc(O)cc4CC[C@H]3[C@@H]1C[C@@H](O)[C@@H]2O [Estriol] | Inactive | 31.2 | 21 | Inactive | 34.4 | 
